How the values were obtained:
CCRF-CEM = test: NCI-60 one-dose screen; type: cell-based; conditions: Homo sapiens, Leukemia panel, single dose 10^−5 M, read-out: Growth inhibition %
CCD-966SK = test: MTT cell proliferation assay, CCD-966SK; conditions: CCD966SK skin fibroblast; 10 µM; 72 h MTT
Experimental: (§2) In the MTT assay, 96-well culture plates were used. A total of 7 × 10^4 cells per well were seeded, and test materials were added to the cells at various concentrations [47, 48]. Human cancer and non-cancer cell lines were purchased commercially from the American Type Culture Collection (ATCC). After 72 h, the cytotoxicity of the compounds and paclitaxel (as a positive control group) was detected using the MTT method (thiazolyl blue tetrazolium bromide, Sigma-M2128). Absorbance values at 570 and 620 nm (OD = OD570–OD620) were measured using an ELISA reader (Anthos Labtec Instruments, Salzburg, Austria).

PDE5A = target: T1, PDE5A (Homo sapiens, UniProt O76074); test: Phosphodiesterase 5 HTRF cGMP assay; type: biochemical; conditions: for IC50: means ± S.D. (n = 4), read-out: PDE5 IC50; for inhibition at 10 µM: read-out: PDE5 % Inhibition at 10 μM
T1 construct: purchased BPS Bioscience, San Diego, CA, USA
Experimental: All the synthesized acridine derivatives were tested for their in vitro ability to inhibit PDE5A at a screening dose of 10 µM.
The enzyme activities of phosphodiesterase 5 (PDE5) were measured using an HTRF cGMP assay kit (Cisbio, Codolet, France). […] Afterward, the HTRF reagent (cGMP-d2 and anti-cGMP-cryptate) was added for 1 h at 25 °C, and PDE activity was assayed on an HTRF reader (Tecan Infinite F200 Pro).

LOX IMVI = test: NCI-60 one-dose screen; type: cell-based; conditions: Homo sapiens, Melanoma panel, single dose 10^−5 M, read-out: Growth inhibition %
[1] = tested on: panel of 60 human tumor cell lines; test: NCI 60-cell line one-dose screen (mean); type: cell-based; conditions: mean of the 60 cell lines, single dose 10^−5 M, read-out: Mean % Growth Inhibition
Experimental: (§1) The newly synthesized compounds were screened for their in vitro anticancer activity at the Developmental Therapeutic Program (DTP) of the National Cancer Institute (NCI). The screening involved a panel of 60 human tumor cell lines consisting of 9 tissue types to screen for potential anti-cancer agents. The primary screening of submitted compounds was performed by testing a single dose (10^−5 M) in the full NCI-60 panel. The detailed % inhibition by the tested compounds against the 60 cell lines is shown in Tables S1–S3 in the Supporting Information.

SNB-75 = test: NCI-60 one-dose screen; type: cell-based; conditions: Homo sapiens; SNB-75, CNS Cancer panel; single dose 10^−5 M; read-out: Growth inhibition %
Experimental: as §1

OVCAR-3 = test: NCI-60 one-dose screen; type: cell-based; conditions: Homo sapiens; OVCAR-3, Ovarian Cancer panel; single dose 10^−5 M; read-out: Growth inhibition %
Experimental: as §1

HL-60(TB) = test: NCI-60 one-dose screen; type: cell-based; conditions: Homo sapiens, Leukemia panel, single dose 10^−5 M, read-out: Growth inhibition %
Experimental: as §1

MDA-MB-435 = test: NCI-60 one-dose screen; type: cell-based; conditions: Homo sapiens; MDA-MB-435, Melanoma panel; single dose 10^−5 M; read-out: Growth inhibition %
Experimental: as §1

HT29 = test: NCI-60 one-dose screen; type: cell-based; conditions: Homo sapiens, HT-29; HT29, Colon Cancer panel; single dose 10^−5 M; read-out: Growth inhibition %
Experimental: as §1

HCT-15 = test: NCI-60 one-dose screen; type: cell-based; conditions: Homo sapiens; HCT-15, Colon Cancer panel; single dose 10^−5 M; read-out: Growth inhibition %
Experimental: as §1

TK-10 = test: NCI-60 one-dose screen; type: cell-based; conditions: Homo sapiens; TK-10, Renal Cancer panel; single dose 10^−5 M; read-out: Growth inhibition %
Experimental: as §1

NCI-H460 = test: NCI-60 one-dose screen; type: cell-based; conditions: Homo sapiens; NCI-H460, Non-small cell lung panel; single dose 10^−5 M; read-out: Growth inhibition %
Experimental: as §1

EKVX = test: NCI-60 one-dose screen; type: cell-based; conditions: Homo sapiens, Non-small cell lung panel, single dose 10^−5 M, read-out: Growth inhibition %
Experimental: as §1

OVCAR-4 = test: NCI-60 one-dose screen; type: cell-based; conditions: Homo sapiens; OVCAR-4, Ovarian Cancer panel; single dose 10^−5 M; read-out: Growth inhibition %
Experimental: as §1

MDA-MB-231/ATCC = test: NCI-60 one-dose screen; type: cell-based; conditions: Homo sapiens, Breast Cancer panel, single dose 10^−5 M, read-out: Growth inhibition %
Experimental: as §1

HS 578T = test: NCI-60 one-dose screen; type: cell-based; conditions: Homo sapiens, Breast Cancer panel, single dose 10^−5 M, read-out: Growth inhibition %
Experimental: as §1

T-47D = test: NCI-60 one-dose screen; type: cell-based; conditions: Homo sapiens, T47D, Breast Cancer panel, single dose 10^−5 M, read-out: Growth inhibition %
Experimental: as §1

MALME-3M = test: NCI-60 one-dose screen; type: cell-based; conditions: Homo sapiens, Melanoma panel, single dose 10^−5 M, read-out: Growth inhibition %
Experimental: as §1

HOP-92 = test: NCI-60 one-dose screen; type: cell-based; conditions: Homo sapiens; HOP-92, Non-small cell lung panel; single dose 10^−5 M; read-out: Growth inhibition %
Experimental: as §1

OVCAR-8 = test: NCI-60 one-dose screen; type: cell-based; conditions: Homo sapiens; OVCAR-8, Ovarian Cancer panel; single dose 10^−5 M; read-out: Growth inhibition %
Experimental: as §1

OVCAR-5 = test: NCI-60 one-dose screen; type: cell-based; conditions: Homo sapiens; OVCAR-5, Ovarian Cancer panel; single dose 10^−5 M; read-out: Growth inhibition %
Experimental: as §1

M14 = test: NCI-60 one-dose screen; type: cell-based; conditions: Homo sapiens; M14, Melanoma panel; single dose 10^−5 M; read-out: Growth inhibition %
Experimental: as §1

NCI-H23 = test: NCI-60 one-dose screen; type: cell-based; conditions: Homo sapiens; NCI-H23, Non-small cell lung panel; single dose 10^−5 M; read-out: Growth inhibition %
Experimental: as §1

NCI-H322M = test: NCI-60 one-dose screen; type: cell-based; conditions: Homo sapiens, Non-small cell lung panel, single dose 10^−5 M, read-out: Growth inhibition %
Experimental: as §1

SK-MEL-2 = test: NCI-60 one-dose screen; type: cell-based; conditions: Homo sapiens; SK-MEL-2, Melanoma panel; single dose 10^−5 M; read-out: Growth inhibition %
Experimental: as §1

IGROV1 = test: NCI-60 one-dose screen; type: cell-based; conditions: Homo sapiens, IGROV-1; IGROV1, Ovarian Cancer panel; single dose 10^−5 M; read-out: Growth inhibition %
SF-268 = test: NCI-60 one-dose screen; type: cell-based; conditions: Homo sapiens; SF-268, CNS Cancer panel; single dose 10^−5 M; read-out: Growth inhibition %
HCT-116 = test: MTT cell proliferation assay, HCT-116; conditions: for % Inhibition at 10 µM: 72 h MTT, means ± SD; for IC50: read-out: IC50 μM, 72 h MTT, means ± SD, three experiments
Experimental: as §2

MOLT-4 = test: NCI-60 one-dose screen; type: cell-based; conditions: Homo sapiens; MOLT-4, Leukemia panel; single dose 10^−5 M; read-out: Growth inhibition %
Experimental: as §1

Structure (SMILES)	inhibition at 10 µM (CCRF-CEM)	% Inhibition at 10 µM (CCD-966SK)	IC50 (PDE5A)	inhibition at 10 µM (PDE5A)	inhibition at 10 µM (LOX IMVI)	inhibition at 10 µM [1]	inhibition at 10 µM (SNB-75)	inhibition at 10 µM (OVCAR-3)	inhibition at 10 µM (MDA-MB-435)	inhibition at 10 µM (HT29)	inhibition at 10 µM (HCT-15)	inhibition at 10 µM (TK-10)	inhibition at 10 µM (NCI-H460)	inhibition at 10 µM (EKVX)	inhibition at 10 µM (OVCAR-4)	inhibition at 10 µM (MDA-MB-231/ATCC)	inhibition at 10 µM (HS 578T)	inhibition at 10 µM (T-47D)	inhibition at 10 µM (MALME-3M)	inhibition at 10 µM (OVCAR-8)	further results
Cc1ccc2nc3ccccc3c(NCc3ccccc3)c2c1 [Compound 30, Benzyl-(2-methylacridin-9-yl)-amine]	65.1%	47.93 ± 1.06%	4.52 ± 1.74 µM	68.8 ± 7.05%	90.9%	64.5%	35%	34%	41.8%	88.4%	82%	24.7%	82.9%	50.4%	67.2%	64.2%	30.2%	36.4%	44.8%	66.5%	inhibition at 10 µM (HL-60(TB)): 59.4%; inhibition at 10 µM (HOP-92): 107%; inhibition at 10 µM (OVCAR-5): 59.6%; inhibition at 10 µM (M14): 54.4%; inhibition at 10 µM (NCI-H23): 64.2%; inhibition at 10 µM (NCI-H322M): 59.1%; inhibition at 10 µM (SK-MEL-2): 0.04%; inhibition at 10 µM (IGROV1): 84.2%; inhibition at 10 µM (SF-268): 31%; % Inhibition at 10 µM (HCT-116): 68.46 ± 1.55%; IC50 (HCT-116): 5.78 ± 0.11 µM
Fc1ccc(CNc2c3ccccc3nc3ccccc23)cc1F [Compound 22, Acridin-9-yl-(3,4-difluorobenzyl)-amine]	58.5%	37.49 ± 7.38%	> 10 µM	36.2 ± 9.78%	87.5%	64.8%	33.8%	31.1%	50.8%	86.6%	82%	48.9%	85.4%	64.5%	64.6%	65.2%	35.2%	52.1%	49.3%	67.9%	inhibition at 10 µM (HL-60(TB)): 65.5%; inhibition at 10 µM (HOP-92): 109%; inhibition at 10 µM (OVCAR-5): 55.4%; inhibition at 10 µM (M14): 56.9%; inhibition at 10 µM (NCI-H23): 64.8%; inhibition at 10 µM (NCI-H322M): 61%; inhibition at 10 µM (SK-MEL-2): 10.6%; inhibition at 10 µM (IGROV1): 77.2%; inhibition at 10 µM (SF-268): 42.8%; % Inhibition at 10 µM (HCT-116): 56.92 ± 0.61%; IC50 (HCT-116): 6.99 ± 0.17 µM
COc1ccc2nc3ccccc3c(NCc3ccc(Cl)cc3)c2c1 [Compound 29, (4-Chlorobenzyl)-(2-methoxyacridin-9-yl)-amine]	91.6%	2.90 ± 2.51%	5.35 ± 1.01 µM	66.1 ± 3.27%	186%	93.3%	42.4%	49%	75.9%	102%	95%	47.1%	87.5%	66.2%	75.5%	75.7%	64%	50.7%	182%	70.3%	inhibition at 10 µM (HL-60(TB)): 164%; inhibition at 10 µM (OVCAR-5): 73.5%; inhibition at 10 µM (MOLT-4): 108%; inhibition at 10 µM (M14): 186%; inhibition at 10 µM (NCI-H23): 71.7%; inhibition at 10 µM (NCI-H322M): 75.4%; inhibition at 10 µM (SK-MEL-2): 28.7%; inhibition at 10 µM (IGROV1): 83.7%; inhibition at 10 µM (SF-268): 46.5%; % Inhibition at 10 µM (HCT-116): 28.83 ± 2.64%
Clc1ccccc1CNc1c2ccccc2nc2ccccc12 [Compound 11, Acridin-9-yl-(2-chlorobenzyl)-amine]	89.3%	36.77 ± 3.49%	4.33 ± 2.35 µM	87.3 ± 3.68%	95.2%	78.4%	56.9%	46.4%	72.8%	94.5%	86.4%	57.5%	91.2%	74.1%	86.9%	71%	50%	69.5%	81%	76.2%	inhibition at 10 µM (HL-60(TB)): 86.4%; inhibition at 10 µM (OVCAR-5): 67.4%; inhibition at 10 µM (MOLT-4): 94.9%; inhibition at 10 µM (M14): 81.9%; inhibition at 10 µM (NCI-H23): 78.4%; inhibition at 10 µM (NCI-H322M): 73%; inhibition at 10 µM (SK-MEL-2): 44.4%; inhibition at 10 µM (IGROV1): 82.2%; inhibition at 10 µM (SF-268): 53.4%; % Inhibition at 10 µM (HCT-116): 63.49 ± 1.20%; IC50 (HCT-116): 7.13 ± 0.24 µM
COc1cccc(CNc2c3ccccc3nc3ccccc23)c1OC [Compound 16, Acridin-9-yl-(2,3-dimethoxybenzyl)-amine]	60.5%	29.78 ± 2.20%	> 10 µM	36.7 ± 8.14%	87%	63.9%	32%	34.9%	53.7%	85.6%	80.2%	40.5%	88.4%	63.7%	63.4%	58.1%	35.7%	52.5%	49.4%	60.8%	inhibition at 10 µM (HOP-92): 102%; inhibition at 10 µM (OVCAR-5): 57%; inhibition at 10 µM (MOLT-4): 82.2%; inhibition at 10 µM (M14): 65.5%; inhibition at 10 µM (NCI-H23): 67.6%; inhibition at 10 µM (NCI-H322M): 58.4%; inhibition at 10 µM (SK-MEL-2): 20.8%; inhibition at 10 µM (IGROV1): 76.8%; inhibition at 10 µM (SF-268): 38.3%

From paper PMC9866191, “Novel 9-Benzylaminoacridine Derivatives as Dual Inhibitors of Phosphodiesterase 5 and Topoisomerase II for the Treatment of Colon Cancer” (Molecules, 2023)
